Assay results: paper PMC7926352, “Synthesis, Characterization and In Vitro Evaluation of Novel 5-Ene-thiazolo[3,2-b][1,2,4]triazole-6(5H)-ones as Possible Anticancer Agents” (Molecules, 2021)
Like-named read-outs stand apart in the source and are kept apart here.

Legend:
CCRF-CEM [1] = system: CCRF-CEM
T-47D = type: cell-based; conditions: Breast Cancer; for CC50: read-out: LC50 (the source's name)
M14 [2] = system: M14
[3] = system: panel of approximately sixty human tumor cell lines; assay: NCI-60 human tumor cell lines screen (SRB), full panel; type: cell-based; conditions: for GI50: read-out: GI50, Total MG_MID; for Positive Cytostatic Effect: ratio of number of cell lines with percent growth from 0 to 50 to total number of cell lines
Description: Compounds 2a, 2c–f, 2h–l, 3, 5e, 5f were selected for antitumor activity which was performed according to the standard protocols of National Cancer Institute (NCI, Bethesda, MD, USA) Developmental Therapeutic Program (DTP). At the prescreening stage, the compounds were evaluated for antitumor activity at the concentration of 10 µM against a panel of approximately sixty cancer cell lines representing different types of cancer including leukemia, melanoma, lung, colon, CNS, ovarian, renal, prostate and breast cancers.
Among them, three compounds (2d, 2h, 2i) presented excellent cytotoxic and four derivatives (2d, 2h, 2i, 2k) cytostatic properties in one or more cell lines when applied at a concentration of 10 µM. […] The outcomes were calculated and presented in the form of three response parameters (GI50, TGI and LC50) for each cell line via growth percentage inhibition curves. […]
The primary anticancer assay was performed on a panel of approximately sixty human tumor cell lines derived from nine neoplastic diseases (leukemia, melanoma, lung, colon, CNS, ovarian, renal, prostate, and breast cancers), in accordance with the protocol of the National Cancer Institute Drug Evaluation Branch (Bethesda, MD, USA). Tested compounds were added to the culture at a single concentration (10^−5 M) and the cultures were incubated for 48 h. End-point determinations were made with a protein-binding dye, sulforhodamine B (SRB). Results for each tested compound were reported as the percentage of the growth of the treated cells when compared to the untreated control cells. The percentage of the growth was evaluated spectrophotometrically versus controls not treated with test agents. […] Using absorbance measurements [time zero (Tz), control growth in the absence of drug (C), and test growth in the presence of the drug (Ti)], the percentage growth was calculated for each drug concentration. Percentage growth inhibition was calculated as:[(Ti − Tz)/[…]] × 100(1) for concentrations for which Ti ≥ Tz, [(Ti − Tz)/Tz] × 100 for concentrations for which Ti < Tz. Dose-response parameters (GI50, TGI) were calculated for each compound. Growth inhibition of 50% (GI50) was calculated from [(Ti − Tz)/(C − Tz)] × 100 = 50, which is the drug concentration resulting in a 50% lower net protein increase in the treated cells (measured by SRB staining) as compared to the net protein increase seen in the control cells. The drug concentration resulting in total growth inhibition (TGI) was calculated from Ti = Tz. Values were calculated for each of these parameters if the level of activity was reached; however, if the effect was not reached or was excessive, the value for that parameter was expressed as more or less than the maximum or minimum concentration tested. The lowest values were obtained with the most sensitive cell lines. Compounds having GI50 values ≤ 100 μM were declared to be active. The selectivity index (SI) calculated by dividing the full panel MG_MID (full-panel mean-graph midpoint) (μM) of the compounds 2h and 2i by their individual subpanel MG_MID of a cell line (μM) was considered as a measure of compounds’ selectivity. Ratios between 3 and 6 mean moderate selectivity, ratios greater than 6 indicate high selectivity toward the corresponding cell line, while compounds not meeting either of these criteria are rated nonselective.

Leukemia cell lines = system: Leukemia cell lines; set-up: LC50, values range inside panel: unit not given beside the values
[4] = system: Ovarian Cancer cell lines
M14 [5] = system: M14; remark: listed apart in the source
[6] = system: panel of approximately sixty human tumor cell lines; assay: NCI-60 human tumor cell lines screen (SRB), full panel; type: cell-based
CCRF-CEM [7] = system: CCRF-CEM; remark: listed apart in the source
[8] = 60 cell lines assay in one dose, 10 μM, 48 h

O=C(COc1ccc(Cl)cc1/C=c1\sc2ncnn2c1=O)Nc1ccc(Cl)cc1 [Compound 2h, (Z)-2-(4-Chloro-2-((6-oxothiazolo[3,2-b][1,2,4]triazol-5(6H)-ylidene)methyl)phenoxy)-N-(4-chlorophenyl)acetamide]
GI50 (UO-31; Homo sapiens, UO-31): 2.29 µM
CC50 (UO-31; Homo sapiens, UO-31, read-out: LC50): 44.7 µM
TGI (UO-31; UO-31, Renal Cancer): 17.37 µM
GI50 (SF-539; Homo sapiens, SF-539): 1.77 µM
CC50 (SF-539; Homo sapiens, SF-539, read-out: LC50): 12.6 µM
TGI (SF-539; SF-539, CNS Cancer): 4.46 µM
GI50 (Renal Cancer cell lines; Homo sapiens, read-out: GI50, panel MG_MID): 5.37 µM
GI50 (Renal Cancer cell lines; Homo sapiens, read-out: GI50, values range inside panel): 1.62 to 12.6 µM
CC50 (Renal Cancer cell lines; Homo sapiens, read-out: LC50, panel MG_MID): 40.5 µM
CC50 (Renal Cancer cell lines; Homo sapiens, read-out: LC50, values range inside panel): 28.8 to 50.1 µM
TGI, panel MG_MID (Renal Cancer cell lines; Renal Cancer subpanel): 16.40 µM
TGI, values range inside panel (Renal Cancer cell lines; Renal Cancer subpanel): 8.12 to 25.11 µM
GI50 (K-562; Homo sapiens, K562): 2.51 µM
CC50 (K-562; Homo sapiens, K562, read-out: LC50): 49 µM
TGI (K-562; K-562, Leukemia): 14.45 µM
GI50 (RPMI-8226; Homo sapiens, RPMI-8226): 1.69 µM
CC50 (RPMI-8226; Homo sapiens, RPMI-8226, read-out: LC50): 26.9 µM
TGI (RPMI-8226; RPMI-8226, Leukemia): 4.89 µM
GI50 (CCRF-CEM [1]; Homo sapiens): 1.35 µM
CC50 (CCRF-CEM [1]; Homo sapiens, read-out: LC50): 7.58 µM
TGI (CCRF-CEM [1]; Leukemia): 3.16 µM
TGI (T-47D): 25.70 µM
GI50 (T-47D; Homo sapiens, T47D): 7.76 µM
CC50 (T-47D; Homo sapiens, T47D): 28.8 µM
TGI (HL-60 (TB); HL-60 (TB), Leukemia): 9.54 µM
GI50 (HL-60 (TB); Homo sapiens, HL-60): 2.69 µM
CC50 (HL-60 (TB); Homo sapiens, HL-60, read-out: LC50): 37.1 µM
GI50 (MDA-MB-231/ATCC; Homo sapiens, MDA-MB-231): < 0.01 µM
CC50 (MDA-MB-231/ATCC; Homo sapiens, MDA-MB-231, read-out: LC50): 75.9 µM
TGI (MDA-MB-231/ATCC; MDA-MB-231/ATCC, Breast Cancer): 11.48 µM
GI50 (M14 [2]; Homo sapiens, M14): 8.31 µM
CC50 (M14 [2]; Homo sapiens, M14, read-out: LC50): 45.7 µM
TGI (M14 [2]; M14, Melanoma): 20.89 µM
activity at 10 µM ([3]; Homo sapiens, 60 cell lines assay in one dose, 10 μM, 48 h, read-out: Mean Growth, %): 29%
activity at 10 µM ([3]; Homo sapiens, 60 cell lines assay in one dose, 10 μM, 48 h, read-out: Range of Growth, %): -48 to 122%
GI50 ([3]; Homo sapiens, full panel average): 3.54 µM
CC50 ([3]; Homo sapiens, full panel average, read-out: LC50, Total MG_MID): 37.1 µM
TGI, Total MG_MID ([3]; full panel average): 12.88 µM
Positive Cytostatic Effect ([3]; one dose, 10 μM): 30/57
Positive Cytotoxic Effect ([3]; one dose, 10 μM, ratio of number of cell lines with percent growth of <0 to total number of cell lines): 12/57

Ethyl(Z)-4-(3-(4-chloro-2-((6-oxothiazolo[3,2-b][1,2,4]triazol-5(6H)-ylidene)methyl)phenyl)propanamido)benzoate [Compound 2i]
CC50 (Leukemia cell lines): 99.2 µM
LC50, values range inside panel (Leukemia cell lines): 95.49– >100
CC50 [4]: 68.7 µM
GI50 (UO-31; UO-31, Renal Cancer): 15.1 µM
TGI (UO-31; UO-31, Renal Cancer): 29.51 µM
GI50 (SF-539; SF-539, CNS Cancer): 12.6 µM
TGI (SF-539; SF-539, CNS Cancer): 25.11 µM
CC50 (NCI-H460): 56.2 µM
CC50 (M14 [5]): 58.9 µM
TGI, panel MG_MID (Renal Cancer cell lines; Renal Cancer subpanel): 27.13 µM
TGI, values range inside panel (Renal Cancer cell lines; Renal Cancer subpanel): 21.37 to 31.62 µM
GI50 (Renal Cancer cell lines; read-out: GI50, panel MG_MID, Renal Cancer subpanel): 13 µM
GI50 (Renal Cancer cell lines; read-out: GI50, values range inside panel, Renal Cancer subpanel): 5.75 to 17.4 µM
CC50 (Renal Cancer cell lines; read-out: LC50, values range inside panel, Renal Cancer subpanel): 51.3 to 58.9 µM
CC50 (SW-620): 46.8 µM
GI50 (K-562; K-562, Leukemia): 18.2 µM
TGI (K-562; K-562, Leukemia): > 100 µM
GI50 (RPMI-8226; RPMI-8226, Leukemia): 5.37 µM
TGI (RPMI-8226; RPMI-8226, Leukemia): 25.70 µM
GI50 (CCRF-CEM [1]; Leukemia): 2.88 µM
TGI (CCRF-CEM [1]; Leukemia): 9.99 µM
CC50 [6]: 63.1 µM
CC50 (KM12): 55 µM
GI50 (T-47D): 11 µM
TGI (T-47D): 38.01 µM
CC50 (T-47D): 41.7 µM
CC50 (SK-MEL-28): 49 µM
GI50 (HL-60 (TB); HL-60 (TB), Leukemia): 12.3 µM
TGI (HL-60 (TB); HL-60 (TB), Leukemia): 41.68 µM
CC50 (HL-60 (TB); read-out: LC50, HL-60 (TB), Leukemia): > 100 µM
CC50 (Breast Cancer cell lines): 73.2 µM
GI50 (MDA-MB-231/ATCC; MDA-MB-231/ATCC, Breast Cancer): 12.3 µM
TGI (MDA-MB-231/ATCC; MDA-MB-231/ATCC, Breast Cancer): 26.91 µM
GI50 (M14 [2]; M14, Melanoma): 12.6 µM
TGI (M14 [2]; M14, Melanoma): 27.54 µM
CC50 (DU-145): 36.3 µM
Mean Growth, % [3, 8]: 61.05%
Range of Growth, % [3, 8]: −22.54 to 122.94%
TGI, Total MG_MID ([3]; full panel average): 28.18 µM
GI50 ([3]; full panel average): 11 µM
Positive Cytostatic Effect ([3]; one dose, 10 μM): 17/58
CC50 (CCRF-CEM [7]): > 100 µM
CC50 (EKVX): 50.1 µM
